Results reported in patent US12448394B2, “Heterocyclic pyrazole derivatives as type III receptor tyrosine kinase inhibitors” (DEVELOPMENT CENTER FOR BIOTECHNOLOGY, priority 2019, dated 2025).
Where two headings read alike, the source gives them in different places.

What was measured:
[1] = test system: MV4-11 human acute myeloid leukemia cell with FLT3-ITD mutation; experiment: MV4-11 cell proliferation assay (CellTiter 96); type: cell-based; settings: MV4-11 cells, 72 hours treatment, CellTiter96, read-out: anti-proliferation activity MV4-11 (FLT3-ITD), IC50 ranking
How it was run: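 Cells seeded at 6500/well in IMDM with 10% heat-inactivated FBS, left overnight at 37 °C, 5% CO2, then exposed to increasing compound concentrations for 72 h. Viability read as absorbance at 490 nm after 2–4 h with CellTiter96 AQueous One reagent.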

PDGFRα kinase = target: T1, PDGFRα kinase (Homo sapiens, UniProt P16234); experiment: PDGFRα kinase assay (AlphaScreen); type: biochemical; settings: read-out: Ranking of IC50 values, PDGFRα
T1 construct: purchased SignalChem
How it was run: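 IC50 values came from duplicate serial dilutions, with product read by AlphaScreen. The reaction ran 30 min at 30 °C, then EDTA stop: 1.5 ng recombinant enzyme, biotin-poly(Glu4:Tyr1) substrate, 10 μM ATP, 10 mM MOPS pH 7.0, 10 mM MgCl2.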

[2] = test system: THP-1 human acute monocytic leukemia cell with NRAS G12D mutation; experiment: THP-1 cell proliferation assay (counter screen); type: cell-based; settings: THP-1 cells, 72 hours treatment, CellTiter96, read-out: anti-proliferation activity THP-1 NRAS N12D, IC50 ranking
How it was run: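 Viability measured as 490 nm absorbance after 2–4 h with CellTiter96 AQueous One reagent, following 72 h treatment with rising compound concentrations. THP-1 cells, 5000/well, grown in RPMI 1640 with 10% FBS and 0.05 mM 2-mercaptoethanol at 37° C, 5% CO2, plated overnight before dosing.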

[3] = test system: phosphorylation of FLT3 and its down-stream effector STAT5; experiment: Western blotting of p-FLT3 and p-STAT5 in MV4-11 cells; type: cell-based; settings: Homo sapiens; at 30 nM treatment, 3 hours, FLT3-ITD positive MV4-11 leukemia cells; read-out: inhibition activity against phosphorylation of FLT3 and its down-stream effector STAT5
Procedure: The potent compounds of formula (I) in EXAMPLE 2 were evaluated, by western blotting assay, for their cellular potencies against phosphorylation of FLT3 and its down-stream effector STAT5 in MV4-11 leukemia cell line with constitutive activation of FLT3 signaling. For western blotting experiments, MV4-11 cells were cultured in IMDM medium containing 0.1% FBS overnight. On the assay day, three million cells were treated with or without compounds for 3 hours in 15 mL tubes. Then, the whole cell lysates were harvested, following extraction by adding 2×SDS Sample Buffer and boiling on hot plate at 105° C. for 15 minutes. The resulting cell lysates were separated by SDS-PAGE electrophoresis and transferred to PVDF membrane. Protein expression was detected using immunoblot with corresponding primary antibody and secondary antibody following the standard procedures. Antibody against p-FLT3 (Tyr-591), anti-rabbit IgG HRP-linked secondary antibody, and anti-mouse IgG HRP-linked secondary antibody were purchased from Cell Signaling Technology. Antibody against p-STAT5 (Tyr-694) was purchased from BD biosciences. Antibody against actin was purchased from R&D system. […] Band intensities of western blot were also quantified by ChemiDoc™ MP Imaging System. Relative intensities of bandscorresponding to drug treatments at a single concentration (30 nM) were compared to the DMSO control group. The percentage (%) inhibition at each drug concentration was calculated using the formula: Percentage(%)inhibition=(1−Relative intensity)×100.

[4] = test system: A375 melanoma cell with BRAF V600E mutation; experiment: A375 cell proliferation assay (counter screen); type: cell-based, human; settings: 72 hours treatment, CellTiter96, read-out: anti-proliferation activity A375 BRAF V600E, IC50 ranking
How it was run: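 A375 cells (BRAF V600E) seeded at 2000 cells/well in DMEM with 10% FBS, settled overnight at 37° C, 5% CO2, then exposed to increasing compound concentrations for 72 hours. Viability read by MTS-type CellTiter96 AQueous reagent, absorbance at 490 nm after 2–4 hours.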

[5] = Homo sapiens, A-375, A375 cells

T1 sequence (P16234 24-1089): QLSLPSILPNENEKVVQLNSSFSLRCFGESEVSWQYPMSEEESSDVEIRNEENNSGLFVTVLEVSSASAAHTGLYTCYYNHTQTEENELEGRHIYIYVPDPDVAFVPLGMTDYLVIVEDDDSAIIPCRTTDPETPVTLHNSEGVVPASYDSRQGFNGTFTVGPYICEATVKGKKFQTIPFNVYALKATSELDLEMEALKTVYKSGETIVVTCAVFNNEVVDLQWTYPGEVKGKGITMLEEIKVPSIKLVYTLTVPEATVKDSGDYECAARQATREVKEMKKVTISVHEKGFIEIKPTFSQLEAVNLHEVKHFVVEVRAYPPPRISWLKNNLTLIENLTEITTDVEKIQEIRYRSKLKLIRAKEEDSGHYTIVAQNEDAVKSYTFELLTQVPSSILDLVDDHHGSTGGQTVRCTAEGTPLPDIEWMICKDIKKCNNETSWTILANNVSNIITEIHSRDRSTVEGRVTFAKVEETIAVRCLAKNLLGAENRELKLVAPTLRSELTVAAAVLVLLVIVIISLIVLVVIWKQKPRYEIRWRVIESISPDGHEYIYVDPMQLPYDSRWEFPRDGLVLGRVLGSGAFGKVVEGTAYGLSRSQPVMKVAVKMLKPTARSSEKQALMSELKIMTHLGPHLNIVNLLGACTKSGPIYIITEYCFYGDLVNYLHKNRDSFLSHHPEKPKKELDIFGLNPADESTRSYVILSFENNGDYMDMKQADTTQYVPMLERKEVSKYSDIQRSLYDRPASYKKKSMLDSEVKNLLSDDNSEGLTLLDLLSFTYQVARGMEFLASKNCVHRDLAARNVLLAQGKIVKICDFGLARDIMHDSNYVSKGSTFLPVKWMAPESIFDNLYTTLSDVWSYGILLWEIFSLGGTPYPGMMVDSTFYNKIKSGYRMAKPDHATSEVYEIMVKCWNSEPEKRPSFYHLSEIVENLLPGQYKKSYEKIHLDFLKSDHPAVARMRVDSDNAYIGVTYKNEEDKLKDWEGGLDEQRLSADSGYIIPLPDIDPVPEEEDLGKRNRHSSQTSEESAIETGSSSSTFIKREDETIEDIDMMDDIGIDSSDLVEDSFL

| IC50 ([1]; Homo sapiens, MV4-11, 72 h) [nM] | IC50 (PDGFRα kinase) [nM] | IC50 [1] [nM] | Compound | IC50 ([2]; Homo sapiens) [nM] | inhibition at 0.03 µM [3] [%] | IC50 [4, 5] [nM] | IC50 [2] [nM] | IC50 ([4]; A375 cells) [nM] |
| --- | --- | --- | --- | --- | --- | --- | --- | --- |
| < 30 | 10 to 30 | – | Cn1ncc2ccc(-c3n[nH]c4c3Cc3sc(-c5ccc(CCN6CCOCC6)cc5)cc3-4)cc21 [Compound 22, 4-(4-(3-(1-methyl-1H-indazol-6-yl)-1,4-dihydro-thieno[2′,3′:4,5]cyclopenta [1,2-c]pyrazol-6-yl)phenethyl)morpholine] | > 10000 | > 50 | > 10000 | – | – |
| < 30 | 1 to 10 | – | Cn1ncc2ccc(-c3n[nH]c4c3Cc3sc(-c5ccc(C(=O)N6CCOCC6)nc5)cc3-4)cc21 [Compound 23, (5-(3-(1-methyl-1H-indazol-6-yl)-1,4-dihydro-thieno[2′,3′:4,5]cyclopenta [1,2-c]pyrazol-6-yl)pyridin-2-yl)(morpholino) methanone] | > 10000 | > 50 | > 10000 | – | – |
| < 30 | 1 to 10 | – | COc1cc(-c2cc3c(s2)Cc2c(-c4ccc5cnn(C)c5c4)n[nH]c2-3)ccc1CN1CCOCC1 [Compound 24, 4-(2-methoxy-4-(3-(1-methyl-1H-indazol-6-yl)-1,4-dihydrothieno[2′,3′:4,5]cyclopenta[1,2-c]pyrazol-6-yl)benzyl)morpholine] | > 10000 | > 50 | > 10000 | – | – |
| < 30 | 1 to 10 | – | Cn1ncc2ccc(-c3n[nH]c4c3Cc3sc(-c5ccc(CN6CCOCC6)c(F)c5)cc3-4)cc21 [Compound 25, 4-(2-fluoro-4-(3-(1-methyl-1H-indazol-6-yl)-1,4-dihydrothieno[2′,3′:4,5]cyclopenta[1,2-c]pyrazol-6-yl)benzyl)morpholine] | > 10000 | > 50 | > 10000 | – | – |
| 30 to 100 | 10 to 30 | – | CCC(c1ccc(-c2cc3c(s2)Cc2c(-c4ccc5cnn(C)c5c4)n[nH]c2-3)cc1)N1CCOCC1 (stereo not shown) [Compound 28, 4-(1-(4-(3-(1-methyl-1H-indazol-6-yl)-1,4-dihydro-thieno[2′,3′:4,5]cyclopenta [1,2-c]pyrazol-6-yl)phenyl)propyl)morpholine] | > 10000 | > 50 | > 10000 | – | – |
| < 30 | 10 to 30 | – | COc1cc(CN2CCOCC2)ccc1-c1cc2c(s1)Cc1c(-c3ccc4cnn(C)c4c3)n[nH]c1-2 [Compound 29, 4-(3-methoxy-4-(3-(1-methyl-1H-indazol-6-yl)-1,4-dihydrothieno [2′,3′:4,5]cyclopenta[1,2-c]pyrazol-6-yl)benzyl) morpholine] | > 10000 | > 50 | > 10000 | – | – |
| < 30 | 100 to 300 | – | Cn1ncc2ccc(-c3n[nH]c4c3Cc3sc(-c5cncc(C(=O)N6CCOCC6)c5)cc3-4)cc21 [Compound 31, (5-(3-(1-methyl-1H-indazol-6-yl)-1,4-dihydrothieno[2′,3′:4,5]cyclopenta[1,2-c]pyrazol-6-yl)pyridin-3-yl) (morpholino)methanone] | 1000 to 10000 | > 50 | 1000 to 10000 | – | – |
| 30 to 100 | 10 to 30 | – | Cn1ncc2ccc(-c3n[nH]c4c3Cc3sc(-c5ccc(CN6CCOCC6)cc5F)cc3-4)cc21 [Compound 32, 4-(3-fluoro-4-(3-(1-methyl-1H-indazol-6-yl)-1,4-dihydrothieno [2′,3′:4,5]cyclopenta [1,2-c]pyrazol-6-yl)benzyl)morpholine] | > 10000 | > 50 | > 10000 | – | – |
| – | 1 to 10 | 30 to 100 | Cc1ccc(-c2cc3c(s2)Cc2c(-c4ccc5cnn(C)c5c4)n[nH]c2-3)cn1 [Compound 33, 3-(1-methyl-1H-indazol-6-yl)-6-(6-methylpyridin-3-yl)-1,4-dihydrothieno [2′,3′:4,5]cyclopenta [1,2-c]pyrazole] | – | > 50 | – | > 10000 | > 10000 |
| 30 to 100 | 30 to 100 | – | Cn1ncc2ccc(-c3n[nH]c4c3Cc3sc(-c5ccc(C(=O)N6CCCCC6)cc5)cc3-4)cc21 [Compound 34, (4-(3-(1-methyl-1H-indazol-6-yl)-1,4-dihydro-thieno[2′,3′:4,5]cyclopenta [1,2-c]pyrazol-6-yl)phenyl)(piperidin-1-yl) methanone] | > 10000 | > 50 | > 10000 | – | – |
| < 30 | 1 to 10 | – | Cn1ncc2ccc(-c3n[nH]c4c3Cc3sc(-c5cccc(C(=O)N6CCOCC6)c5)cc3-4)cc21 [Compound 37, (3-(3-(1-methyl-1H-indazol-6-yl)-1,4-dihydro-thieno[2′,3′:4,5]cyclopenta [1,2-c]pyrazol-6-yl)phenyl)(morpholino) methanone] | > 10000 | > 50 | > 10000 | – | – |
| < 30 | 10 to 30 | – | Cn1ncc2ccc(-c3n[nH]c4c3Cc3sc(-c5ccc(C(=O)N6CCCC6)cc5)cc3-4)cc21 [Compound 38, (4-(3-(1-methyl-1H-indazol-6-yl)-1,4-dihydro-thieno[2′,3′:4,5]cyclopenta [1,2-c]pyrazol-6-yl)phenyl)(pyrrolidin-1-yl) methanone] | > 10000 | > 50 | > 10000 | – | – |
| 30 to 100 | 10 to 30 | – | Cn1ncc2ccc(-c3n[nH]c4c3Cc3sc(-c5ccc(CN6CCSCC6)cc5)cc3-4)cc21 [Compound 39, 3-(1-methyl-1H-indazol-6-yl)-6-(4-(thiomorpho-linomethyl)phenyl)-1,4-dihydrothieno[2′,3′:4,5] cyclopenta[1,2-c]pyrazole] | > 10000 | > 50 | > 10000 | – | – |
| < 30 | 10 to 30 | – | Cn1ncc2ccc(-c3n[nH]c4c3Cc3sc(-c5cnc(C(=O)N6CCOCC6)nc5)cc3-4)cc21 [Compound 41, (5-(3-(1-methyl-1H-indazol-6-yl)-1,4-dihydrothieno[2′,3′:4,5]cyclopenta[1,2-c]pyrazol-6-yl)pyrimidin-2-yl) (morpholino)methanone] | > 10000 | > 50 | > 10000 | – | – |
| 30 to 100 | 10 to 30 | – | CC(C)n1ncc2ccc(-c3n[nH]c4c3Cc3sc(-c5ccc(CN6CCOCC6)cc5)cc3-4)cc21 [Compound 42, 4-(4-(3-(1-isopropyl-1H-indazol-6-yl)-1,4-dihydro-thieno[2′,3′:4,5]cyclopenta [1,2-c]pyrazol-6-yl)benzyl)morpholine] | > 10000 | > 50 | > 10000 | – | – |
| 30 to 100 | 1 to 10 | – | COc1cc(-c2cc3c(s2)Cc2c(-c4ccc5cnn(C)c5c4)n[nH]c2-3)ccc1C(=O)N1CCOCC1 [Compound 43, (2-methoxy-4-(3-(1-methyl-1H-indazol-6-yl)-1,4-dihydrothieno [2′,3′:4,5]cyclopenta [1,2-c]pyrazol-6-yl)phenyl)(morpholino) methanone] | > 10000 | > 50 | > 10000 | – | – |
| < 30 | 1 to 10 | – | Cn1ncc2ccc(-c3n[nH]c4c3Cc3sc(-c5ccc(C(=O)N6CCOCC6)c(F)c5)cc3-4)cc21 [Compound 44, (2-fluoro-4-(3-(1-methyl-1H-indazol-6-yl)-1,4-dihydrothieno[2′,3′:4,5]cyclopenta[1,2-c]pyrazol-6-yl)phenyl)(morpholino) methanone] | > 10000 | > 50 | > 10000 | – | – |
